According to paper PMC12040169 (PLOS Biology, 2025):

Assay: in vitro
Details: human, hela cells, % viability

In order of rising viability at 28.5 h, 10 µM:
1. O=C(CC1C(=O)N(c2cccc(Cl)c2)C(=O)N1CCc1cccs1)Nc1ccccc1 (centres unmarked) [CBK267499]  79.7%
2. O=C(CSc1nnc(-c2ccccc2F)n1-c1ccccc1)Nc1ccc2cn[nH]c2c1 [CBK267591]  81.9%
3. COc1ccc(C)cc1NC(=O)CSc1nnc(-c2ccccc2Cl)n1-c1ccccc1 [CBK267538]  82.9%
4. CS(=O)(=O)Nc1ccc(C2=NN(S(C)(=O)=O)C(c3ccc4nccnc4c3)C2)cc1 (centres unmarked) [CBK267546]  83.1%
5. COCCSc1ccccc1C(=O)Nc1ccc(S(N)(=O)=O)cc1 [CBK267530]  83.2%
6. O=C(CN1C(=O)c2ccc(Br)cc2C1=O)OCc1ccc(S(=O)(=O)N2CCOCC2)cc1 [CBK267505]  84.6%
7. O=C(O)c1ccc(CSc2nnc(-c3ccncc3)n2-c2ccc(Br)cc2)cc1 [CBK267559]  84.9%
8. CCn1cc(C(=O)O)c(=O)c2cnc(N3CCN(C(=S)NC(=O)c4c(-c5ccccc5)noc4C)CC3)nc21 [CBK267491]  85%
9. CN(c1cccc(NS(=O)(=O)c2ccc3ccccc3c2)c1)S(C)(=O)=O [CBK267507]  85.7%
10. CC(NC(=O)CSc1ncc(-c2ccccc2)nn1)c1ccccc1 (centres unmarked) [CBK267514]  85.7%
11. COc1ccc(S(=O)(=O)N2CCC(C(=O)N3CCN(Cc4ccc5c(c4)OCO5)CC3)CC2)cc1Cl [CBK267614]  86%
12. O=[N+]([O-])c1ccc(CSc2nnc(-c3cccs3)n2Cc2ccco2)cc1 [CBK267588]  86.6%
13. CCn1cc(C(=O)O)c(=O)c2cc(F)c(N3CCN(C(=S)NC(=O)c4c(-c5ccccc5)noc4C)CC3)cc21 [CBK267490]  86.8%
14. CS(=O)(=O)N(CC(=O)Nc1ccc2ccccc2c1)c1ccc(Cl)cc1Cl [CBK267501]  87.6%
15. O=C(CSc1nnc(-c2cccnc2)n1-c1cccc(C(F)(F)F)c1)c1ccc(F)cc1 [CBK267599]  87.9%
16. Cc1ccc(SCCNS(=O)(=O)c2ccc3ccccc3c2)cc1 [CBK267504]  88%
17. CCOC(=O)c1cc(CC)sc1NC(=O)c1cc2ccccc2o1 [CBK267596]  88.3%
18. CCc1cccc(C)c1NC(=O)CSc1nnc(-c2cccnc2)n1C [CBK267582]  88.4%
19. Cc1ccc([N+](=O)[O-])cc1NC(=O)CSC1=NCCS1 [CBK267489]  88.6%
20. O=C1CC(SCCc2nc3ccccc3[nH]2)C(=O)N1c1ccc(F)cc1 (centres unmarked) [CBK267500]  88.8%
21. O=C(CC(C(=O)O)n1cnc([N+](=O)[O-])n1)c1ccc(Br)cc1 (centres unmarked) [CBK267524]  89%
22. Cc1onc(-c2ccccc2)c1C(=O)NC(=S)Nc1sc2c(c1C#N)CCC2 [CBK267492]  89.1%
23. O=C(NC1(C(F)(F)F)NC(=O)N(CCc2ccccc2)C1=O)c1ccco1 (centres unmarked) [CBK267482]  89.2%
24. CCn1c(Cc2c(C)[nH]c3ccccc23)nnc1SCC(=O)NC12CC3CC(CC(C3)C1)C2 [CBK267529]  89.3%
25. O=C(NCCN1CCOCC1)c1cc(-c2ccccc2)on1 [CBK267479]  89.5%
26. Nn1c(SCc2ccc(Br)cc2)nnc1-c1ccccn1 [CBK267552]  89.5%
27. Cn1c2ccccc2c2nnc(SCc3ccc4nonc4c3)nc21 [CBK267515]  89.9%
28. CC(NC(=O)c1cccc2ccccc12)c1ccc2ccccc2c1 (centres unmarked) [CBK267646]  90.1%
29. O=C(COc1ccc(S(=O)(=O)NC2CCCCC2)cc1Cl)Nc1ccc2c(c1)OCO2 [CBK267615]  90.5%
30. CCN1CCN(c2c(Cl)cccc2NC(=O)CSc2ccc(Cl)cc2)CC1 [CBK267606]  90.7%
31. O=C(CSc1nnc(-c2cccnc2)n1-c1ccccc1)Nc1cc(C(F)(F)F)ccc1Cl [CBK267540]  90.8%
32. Nn1c(SCc2ccc(C(=O)O)cc2)nnc1-c1ccccn1 [CBK267553]  90.8%
33. Cn1c(SCC(=O)Nc2c(F)cc(F)cc2Br)nnc1-c1cccnc1 [CBK267583]  90.8%
34. Cc1ccc(C(=O)NC(=O)CSc2nc(N)n[nH]2)cc1 [CBK267523]  90.9%
35. Cc1ccc2nc(O)c(C3=NN(C(=O)CCC(=O)O)C(c4ccco4)C3)c(-c3ccccc3)c2c1 (centres unmarked) [CBK267544]  91%
36. COc1cccc(-c2nnc(SCc3nc4ccccc4[nH]3)n2N)c1 [CBK267549]  91%
37. Cc1onc(-c2ccccc2)c1C(=O)NNC(=S)NC(=O)c1ccc(Cl)cc1 [CBK267493]  91.1%
38. Nc1nonc1-c1nc2ccccc2n1Cc1ccc(-c2nn[nH]n2)cc1 [CBK267648]  91.3%
39. c1ccc(Cn2c3ccccc3c3nnc(SCc4ccc5nonc5c4)nc32)cc1 [CBK267517]  91.5%
40. Cc1ccc(N2CC(C(=O)Nc3ccc(S(=O)(=O)NCC4CCCO4)cc3)CC2=O)cc1 (centres unmarked) [CBK267532]  91.7%
41. CCOc1ccc(CNc2ccc(CNc3ncn[nH]3)cc2)cc1 [CBK267617]  91.7%
42. O=C(CSc1nnc(SCc2cccc3ccccc23)s1)Nc1ccc(F)c(Cl)c1 [CBK267574]  92.1%
43. Oc1cccc(C(O)CNCc2ccc(OCc3ccc(Cl)cc3Cl)cc2)c1 (centres unmarked) [CBK267621C]  93%
44. COc1ccc(NC(=O)CC2Nc3cccc4cccc(c34)NC2=O)cc1 (centres unmarked) [CBK267561]  93.1%
45. CCOC(=O)c1ccc(Nc2nnc3nc(C)cc(C)n23)cc1 [CBK267600]  93.1%
46. Cn1ncc(C#N)c1NC(=O)C1CC(c2ccc(Cl)c(Cl)c2)=NO1 (centres unmarked) [CBK267478]  93.7%
47. O=C(Nc1ccc(NC(=O)Nc2cccc(Cl)c2)cc1)Nc1cccc(Cl)c1 [CBK267623]  93.9%
48. O=[N+]([O-])c1ccc(S(=O)(=O)NCCSCc2ccco2)cc1 [CBK267503]  94.1%
49. O=C(CCc1ccccc1)NNC(=O)C1C2C=CC(C2)C1C(=O)O (centres unmarked) [CBK267541]  94.2%
50. O=C(CSc1nnc(-c2cccs2)n1-c1ccccc1)Nc1ccnc2ccccc12 [CBK267487]  94.4%
51. Cc1c(C(=O)Nc2ccc(S(=O)(=O)NCC3CCCO3)cc2)cccc1[N+](=O)[O-] (centres unmarked) [CBK267533]  94.5%
52. Cc1ccccc1NS(=O)(=O)c1ccc(OCC(=O)N2CCN(c3cc(Cl)ccc3C)CC2)cc1 [CBK267649]  94.5%
53. CS(=O)(=O)N1CCN(c2ccccc2NC(=O)Cc2ccc(Cl)cc2)CC1 [CBK267605]  94.9%
54. Cc1ccc(NS(=O)(=O)c2ccc(CCC(=O)N3CCc4ccccc4C3)cc2)cc1 [CBK267616]  94.9%
55. COc1ccc(S(=O)(=O)N2CCC(C(=O)NCc3cccnc3)CC2)cc1Cl [CBK267613]  95.2%
56. CC1CCc2c(sc(NC(=O)c3nc4ncccn4n3)c2C(N)=O)C1 (centres unmarked) [CBK267631]  96.3%
57. O=C(CSc1nnc(-c2ccc(Cl)cc2Cl)[nH]1)Nc1ccc(F)cc1 [CBK267651]  96.4%
58. COc1ccc(CCNc2nc3c(c(=O)n(C)c(=O)n3C)n2Cc2ccccc2Br)cc1OC [CBK267495]  96.7%
59. O=C(CSc1nnc(-c2cccnc2)n1Cc1ccccc1)Nc1ccc(F)cc1 [CBK267528]  96.8%
60. COc1cc(NC(=O)Cn2c(-c3cncs3)nc3ccccc32)cc(OC)c1OC [CBK267640]  97.2%
61. O=C(O)CCc1nn2c3ccccc3n(CCN3CCCCC3)c2nc1=O [CBK267519]  97.5%
62. COCCSc1nnc(NS(=O)(=O)Cc2ccccc2)s1 [CBK267535]  97.6%
63. Cn1c(SCC(=O)Nc2c(F)cc(F)cc2Br)nnc1-c1cnccn1 [CBK267584]  97.6%
64. COc1ccc([N+](=O)[O-])cc1NC(=O)Nc1ccc(Cl)c(Cl)c1 [CBK267593]  99.5%
65. CC1CC(C(F)F)n2nc(C(=O)O)nc2N1 (centres unmarked) [CBK267636]  99.7%
66. COCc1ccccc1Cn1cnc2ccccc21 [CBK267496]  100%
67. CCN1CCN(c2cc(N3CCN(C(=O)COc4ccccc4F)C(C)C3)c([N+](=O)[O-])cc2F)CC1 (centres unmarked) [CBK267513]  100%
68. N#CCCSc1nnc(-c2cccnc2)n1Cc1ccccc1 [CBK267526]  100%
69. Clc1ccc(-n2c(SCc3nc4ccccc4[nH]3)nnc2-c2ccncc2)cc1 [CBK267557]  100%
70. COc1ccc(-n2c(SCc3nc4ccccc4[nH]3)nc3sc4c(c3c2=O)CCCC4)cc1 [CBK267558]  100%
71. O=C(CSc1nnc(SCc2cccc3ccccc23)s1)c1ccc2c(c1)OCO2 [CBK267576]  100%
72. O=[N+]([O-])c1ccc(CSc2nnc(-c3cnccn3)n2Cc2ccco2)cc1 [CBK267585]  100%
73. CC(C)C(=O)N1CCN(c2ccccc2NC(=O)c2ccc(N3CCCCC3)c([N+](=O)[O-])c2)CC1 [CBK267609]  100%
74. CC(C)(C)c1ccc(COn2c(=O)c(-c3ccccc3Cl)[n+]([O-])c3ccccc32)cc1 [CBK267494]  101%
75. COc1ccc(C)cc1S(=O)(=O)N(C)CC(=O)Nc1cccc(SC)c1 [CBK267510]  101%
76. O=C(O)CCC(=O)N1N=C(c2c(-c3ccccc3)c3cc(Br)ccc3[nH]c2=O)CC1c1ccc([N+](=O)[O-])cc1 (centres unmarked) [CBK267543]  104%
77. Cn1c(=O)n(C)c2cc(S(=O)(=O)NCCC(=O)O)ccc21 [CBK267565]  105%
78. Cc1ccc2[nH]c(/C(C#N)=C\c3cc(C)n(-c4ccc(S(N)(=O)=O)cc4)c3C)nc2c1 [CBK267611]  105%
79. O=C(CCN1C(=O)c2ccccc2C1=O)NC(=S)Nc1ccccc1 [CBK267595]  108%
80. C=CCOc1cccc(CNc2nn[nH]n2)c1 [CBK267618]  109%
81. Cc1cc(C)n2c(Nc3ccc(S(N)(=O)=O)cc3)nnc2n1 [CBK267601]  110%
82. O=C(CSC1c2ccccc2Sc2ccccc21)Nc1ccc(C(=O)O)cc1 [CBK267542]  111%
83. Cc1sc2nc(SCc3nc4ccccc4[nH]3)n(Cc3ccco3)c(=O)c2c1C [CBK267554]  112%
